This is an account of results in patent US20130150363A1, “Method of Treating Cancer Using a cMET and AXL Inhibitor and an ErbB Inhibitor” (GlaxoSmithKline, priority 2008, published 2013).

Structures are written as SMILES.

Test [1] concerns BT474 breast carcinoma cells. Description: Cell growth inhibition (CellTiter-Glo), BT474. Type of test: cell-based. Conditions: Homo sapiens, BT-474, 72 h, 3 days. An excerpt: Esophageal carcinoma cell line OE33 was purchased from ECACC European Collection of Cell Cultures (UK). Breast cancer cell line JIMT-1 and gastric carcinoma cell line MKN-45 were purchased from Deutsche Sammlung von Mikroorganismen and Zellkulturen GmbH (Germany); KPL-4, a human breast cancer cell line was kindly provided by Prof. J Kurebayashi (Kawasaki Medical School, Kurashiki, Japan). […] The LICR-LON-HN5 head and neck carcinoma cell line (HN5) was a gift from the Institute of Cancer Research, Surrey, U.K. HN5C12 was developed by single-cell cloning of HN5 followed by exposure to increasing concentrations of lapatinib. […] Cell growth inhibition was determined via CellTiter-Glo cell viability assays. […] BT474-J4 and HN5C12 were washed with PBS and plated in their culture media without lapatinib. […] ATP levels were determined by adding Cell Titer Glo0 (Promega), incubating for 20 minutes then the luminescent signal was read on the SpectraMax M5 plate with a 0.5 second integration time. Cell growth was calculated relative to vehicle (DMSO) treated control wells. […] EOHSA at each dose was calculated as the minimum difference in average % inhibition between the combination and each monotherapy, from the appropriate ANOVA contrast. […] The p-values for both synergy and antagonism were calculated using this adjustment.
In general terms: ATP-based viability assays read luminescence as a measure of living cells.

For another test, the system named is BT474 cells. Description: Cell apoptosis assays (Cell Death ELISA, Caspase-Glo 3/7), BT474. Type of test: cell-based, human. The following applies: BT474, presence of HGF (FIG. 4). How it is done: (§1) Cell apoptosis was measured by both a cell death ELISA method, which measures DNA fragmentation, a hallmark of apoptosis; and Caspase-Glo® 3/7 assay which detects the activity of caspase 3/7, one of the execution enzymes for apoptosis in cells.
(§2) The Cell Death ELISA^Plus kit (Roche, Mannheim, Germany) was used according to the manufacturer's instructions. Cells were seeded in 96-well plates at 10,000 per well. After 24 h, cells were dosed and grown for an additional 48 h in RPMI 1640 with 10% FBS in 5% CO2 at 37° C. Cytoplasmic fractions of control and treated cells were transferred into streptavidin-coated 96-well plates and incubated with biotinylated mouse antihistone antibody and peroxidase-conjugated mouse anti-DNA antibody at room temperature for 2 h. Absorbance was determined at 405-490 nm using a Spectra Max Gemini microplate reader (Molecular Devices, Sunnyvale, Calif.).
(§3) The Caspase-Glo® 3/7 assay (Promega) is a homogeneous luminescent assay that measures caspase-3 and -7 activities. Cells were seeded in 96-well plates at 5,000 per well. […] Caspase 3/7 activity was detected by adding luminogenic caspase-3/7 substrate, which contains the tetrapeptide sequence DEVD, in a reagent optimized for caspase activity, luciferase activity and cell lysis, according to the manufacturer's instructions.
A general note: An ELISA detects its analyte on a solid surface through an enzyme-linked reagent.

Another test deals with BT474-J4 cells. Description: Cell apoptosis assays (Cell Death ELISA, Caspase-Glo 3/7), BT474-J4. Type of test: cell-based, human. The following applies: BT474-J4, presence of HGF (FIG. 4, FIG. 5B). On the procedure:
as §1, §2, §3

As to `CS(=O)(=O)CCNCc1ccc(-c2ccc3ncnc(Nc4ccc(OCc5cccc(F)c5)c(Cl)c4)c3c2)o1` [Lapatinib, N-(3-chloro-4-{[(3-fluorophenyl)methyl]oxy}phenyl)-6-[5-({[2-(methylsulfonyl)ethyl]amino}methyl)-2-furanyl]-4-quinazolinamine], the IC50 (usually the midpoint of a concentration-inhibition curve) was found to be 120 nM in test [1] (breast_BT474, +HGF (2 ng/mL)) and 110 nM in test [1] (breast_BT474, −HGF). Moreover, the “apoptosis induction (DNA fragmentation and caspase 3/7 activation)” value in the test on BT474 cells is on record as “induces apoptosis”; in the test on BT474-J4 cells, “only in BT474”.
